# Laboratory results from patent publication US8338465B2, “Cyclic carboxylic acid rhodanine derivatives for the treatment and prevention of tuberculosis” (priority 2006, dated 2012).
# Target: T1, dihydrolipoamide acyltransferase (DlaT) (Mycobacterium tuberculosis, UniProt P9WIS7)
# T1 sequence (P9WIS7 1-553): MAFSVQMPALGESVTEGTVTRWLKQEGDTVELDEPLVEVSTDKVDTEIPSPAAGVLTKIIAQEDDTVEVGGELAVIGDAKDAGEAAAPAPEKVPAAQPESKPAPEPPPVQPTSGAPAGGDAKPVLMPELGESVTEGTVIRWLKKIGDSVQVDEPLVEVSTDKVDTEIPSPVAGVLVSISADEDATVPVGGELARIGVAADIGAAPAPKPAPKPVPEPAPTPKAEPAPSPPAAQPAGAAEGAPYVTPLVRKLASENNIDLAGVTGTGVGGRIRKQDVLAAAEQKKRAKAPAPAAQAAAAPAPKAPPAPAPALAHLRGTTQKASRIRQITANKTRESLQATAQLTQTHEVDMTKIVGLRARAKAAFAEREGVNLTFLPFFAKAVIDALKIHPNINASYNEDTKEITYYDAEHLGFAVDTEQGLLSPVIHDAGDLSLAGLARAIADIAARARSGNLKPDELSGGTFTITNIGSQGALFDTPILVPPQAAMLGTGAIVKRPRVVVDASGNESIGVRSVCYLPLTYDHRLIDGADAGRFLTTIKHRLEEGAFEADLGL
# Assay: DlaT inhibition (Dlat IC50); DTNB peroxidase assay with Lpd, DlaT and AhpD
# Format: biochemical
# Details: Table 1, Compounds A1 to A294; read-out: Dlat IC50 category
row,Compound,IC50 [µM]
1,Cc1cc(F)ccc1-c1ccc(C=C2SC(=S)N(c3cc(C(=O)O)ccc3F)C2=O)o1 [Compound A149],< 10
2,Cc1ccc(-c2ccc(C=C3SC(=S)N(c4cccc(C(=O)O)c4)C3=O)o2)c(F)c1 [Compound A150],11 to 40
3,Cc1ccc(-c2ccc(C=C3SC(=S)N(c4cc(C(=O)O)ccc4F)C3=O)o2)c(F)c1 [Compound A151],< 10
4,COc1ccc(-c2ccc(C=C3SC(=S)N(c4cccc(C(=O)O)c4)C3=O)o2)cc1 [Compound A152],11 to 40
5,O=C(O)c1cccc(N2C(=O)C(=Cc3ccc(-c4ccc(F)cc4F)o3)SC2=S)c1 [Compound A153],< 10
6,O=C(O)c1ccc(F)c(N2C(=O)C(=Cc3ccc(-c4ccc(F)cc4F)o3)SC2=S)c1 [Compound A154],< 10
7,Cc1ccc(-c2ccc(C=C3SC(=S)N(c4cccc(C(=O)O)c4)C3=O)o2)c(C)c1 [Compound A155],11 to 40
8,Cc1ccc(-c2ccc(C=C3SC(=S)N(c4cc(C(=O)O)ccc4F)C3=O)o2)c(C)c1 [Compound A156],< 10
9,CC(C)(C)OC(=O)Nc1ccccc1-c1ccc(C=C2SC(=S)N(c3cccc(C(=O)O)c3)C2=O)o1 [Compound A157],> 41
10,Nc1ccccc1-c1ccc(C=C2SC(=S)N(c3cccc(C(=O)O)c3)C2=O)o1 [Compound A158],> 41
11,COc1ccc(-c2ccc(C=C3SC(=S)N(c4cccc(C(=O)O)c4)C3=O)o2)c(C)c1 [Compound A159],11 to 40
12,COc1ccc(-c2ccc(C=C3SC(=S)N(c4cc(C(=O)O)ccc4F)C3=O)o2)c(C)c1 [Compound A160],< 10
13,Cc1ccccc1-c1cccc(C=C2SC(=S)N(c3cc(C(=O)O)ccc3F)C2=O)n1 [Compound A161],< 10
14,O=C(O)c1cccc(N2C(=O)C(=Cc3ccc(-c4ccccc4O)o3)SC2=S)c1 [Compound A162],< 10
15,O=C(O)c1ccc(F)c(N2C(=O)C(=Cc3ccc(-c4ccccc4O)o3)SC2=S)c1 [Compound A163],< 10
16,CC(C)(C)OC(=O)Nc1ccccc1-c1ccc(C=C2SC(=S)N(c3cc(C(=O)O)ccc3F)C2=O)o1 [Compound A164],11 to 40
17,Cc1ccc(-c2ccc(C=C3SC(=S)N(c4cc(C(=O)O)ccc4F)C3=O)o2)cc1 [Compound A165],< 10
18,COc1ccc(-c2ccc(C=C3SC(=S)N(c4cc(C(=O)O)ccc4F)C3=O)o2)cc1 [Compound A166],< 10
19,COc1ccc(-c2ccc(C=C3SC(=S)N(c4cccc(C(=O)O)c4)C3=O)o2)c(OC)c1 [Compound A167],< 10
20,COc1ccc(-c2ccc(C=C3SC(=S)N(c4cc(C(=O)O)ccc4F)C3=O)o2)c(OC)c1 [Compound A168],< 10
21,Cc1cc(Cl)ccc1-c1ccc(C=C2SC(=S)N(c3cccc(C(=O)O)c3)C2=O)o1 [Compound A169],< 10
22,Cc1cc(Cl)ccc1-c1ccc(C=C2SC(=S)N(c3cc(C(=O)O)ccc3F)C2=O)o1 [Compound A170],< 10
23,Cc1cccc(C)c1-c1ccc(C=C2SC(=S)N(c3cccc(C(=O)O)c3)C2=O)o1 [Compound A171],11 to 40

row,Compound,IC50 [µM]
1,Cc1cccc(C)c1-c1ccc(C=C2SC(=S)N(c3cc(C(=O)O)ccc3F)C2=O)o1 [Compound A172],< 10
2,Cc1ccccc1-c1cccc(C=C2SC(=S)N(c3cccc(C(=O)O)c3)C2=O)c1 [Compound A173],11 to 40
3,Cc1ccccc1-c1cccc(C=C2SC(=S)N(c3cc(C(=O)O)ccc3F)C2=O)c1 [Compound A174],< 10
4,COc1cc(F)ccc1-c1ccc(C=C2SC(=S)N(c3cccc(C(=O)O)c3)C2=O)o1 [Compound A175],< 10
5,COc1cc(F)ccc1-c1ccc(C=C2SC(=S)N(c3cc(C(=O)O)ccc3F)C2=O)o1 [Compound A176],< 10
6,COc1ccc(-c2ccc(C=C3SC(=S)N(c4cccc(C(=O)O)c4)C3=O)o2)cc1F [Compound A177],< 10
7,COc1ccc(-c2ccc(C=C3SC(=S)N(c4cc(C(=O)O)ccc4F)C3=O)o2)cc1F [Compound A178],< 10
8,O=C(O)c1cccc(N2C(=O)C(=Cc3ccc(-c4ccccc4OCc4ccccc4)o3)SC2=S)c1 [Compound A179],< 10
9,O=C(O)c1ccc(F)c(N2C(=O)C(=Cc3ccc(-c4ccccc4OCc4ccccc4)o3)SC2=S)c1 [Compound A180],< 10
10,Cc1cc(C)c(-c2ccc(C=C3SC(=S)N(c4cc(C(=O)O)ccc4F)C3=O)o2)c(C)c1 [Compound A181],< 10
11,Cc1cc(N(C)C)ccc1-c1ccc(C=C2SC(=S)N(c3cccc(C(=O)O)c3)C2=O)o1 [Compound A182],< 10
12,Cc1cc(N(C)C)ccc1-c1ccc(C=C2SC(=S)N(c3cc(C(=O)O)ccc3F)C2=O)o1 [Compound A183],11 to 40
13,Cc1cc(C)c(-c2ccc(C=C3SC(=S)N(c4cccc(C(=O)O)c4)C3=O)o2)c(C)c1 [Compound A184],11 to 40
14,CSc1ccccc1-c1ccc(C=C2SC(=S)N(c3cccc(C(=O)O)c3)C2=O)o1 [Compound A185],< 10
15,CSc1ccccc1-c1ccc(C=C2SC(=S)N(c3cc(C(=O)O)ccc3F)C2=O)o1 [Compound A186],< 10
16,Cc1ccccc1-c1ccc(C=C2SC(=S)N(c3cccc(C(=O)O)c3)C2=O)s1 [Compound A187],11 to 40
17,Cc1ccccc1-c1ccc(C=C2SC(=S)N(c3cc(C(=O)O)ccc3F)C2=O)s1 [Compound A188],< 10
18,O=C(O)c1cccc(N2C(=O)C(=Cc3ccc(-c4ccccc4Cl)s3)SC2=S)c1 [Compound A189],< 10
19,O=C(O)c1ccc(F)c(N2C(=O)C(=Cc3ccc(-c4ccccc4Cl)s3)SC2=S)c1 [Compound A190],< 10
20,CN(C)c1ccc(-c2ccc(C=C3SC(=S)N(c4cc(C(=O)O)ccc4F)C3=O)o2)cc1 [Compound A191],< 10
21,O=C(O)c1cccc(N2C(=O)C(=Cc3ccccc3-c3ccccc3OCc3ccccc3Cl)SC2=S)c1 [Compound A192],11 to 40
22,O=C(O)c1cccc(N2C(=O)C(=Cc3ccc(-c4ccccc4Oc4ccccc4)o3)SC2=S)c1 [Compound A193],< 10
23,O=C(O)c1ccc(F)c(N2C(=O)C(=Cc3ccc(-c4ccccc4Oc4ccccc4)o3)SC2=S)c1 [Compound A194],< 10

row,Compound,IC50 [µM]
1,O=C(O)c1cccc(N2C(=O)C(=Cc3ccc(-c4ccccc4F)s3)SC2=S)c1 [Compound A195],11 to 40
2,O=C(O)c1cccc(N2C(=O)C(=Cc3ccc(-c4ccccc4F)s3)SC2=S)c1 [Compound A196],< 10
3,O=C(O)c1ccc(F)c(N2C(=O)C(=Cc3ccccc3-c3ccccc3OCc3ccccc3Cl)SC2=S)c1 [Compound A197],< 10
4,Cc1cccc(C)c1-c1ccc(C=C2SC(=S)N(c3cccc(C(=O)O)c3)C2=O)o1 [Compound A198],< 10
5,O=C(O)c1cccc(N2C(=O)C(=Cc3ccc(-c4ccc(C(F)(F)F)cc4)o3)SC2=S)c1 [Compound A200],< 10
6,O=C(O)c1ccc(F)c(N2C(=O)C(=Cc3ccc(-c4ccc(C(F)(F)F)cc4)o3)SC2=S)c1 [Compound A201],< 10
7,O=C(O)c1cccc(N2C(=O)C(=Cc3ccc(-c4cccc(-c5ccccc5)c4)o3)SC2=S)c1 [Compound A202],< 10
8,O=C(O)c1ccc(F)c(N2C(=O)C(=Cc3ccc(-c4cccc(-c5ccccc5)c4)o3)SC2=S)c1 [Compound A203],< 10
9,CC(=O)Nc1ccc(-c2ccc(C=C3SC(=S)N(c4cccc(C(=O)O)c4)C3=O)o2)cc1 [Compound A204],< 10
10,CC(=O)Nc1ccc(-c2ccc(C=C3SC(=S)N(c4cc(C(=O)O)ccc4F)C3=O)o2)cc1 [Compound A205],< 10
11,CC(=O)c1ccc(-c2ccc(C=C3SC(=S)N(c4cccc(C(=O)O)c4)C3=O)o2)cc1 [Compound A206],< 10
12,CC(=O)c1ccc(-c2ccc(C=C3SC(=S)N(c4cc(C(=O)O)ccc4F)C3=O)o2)cc1 [Compound A207],< 10
13,O=C(O)c1ccc(F)c(N2C(=O)C(=Cc3ccc(-c4ccccc4F)o3)SC2=S)c1 [Compound A208],11 to 40
14,O=C(O)c1cccc(N2C(=O)C(=Cc3ccc(-c4cccc(CO)c4)o3)SC2=S)c1 [Compound A209],< 10
15,O=C(O)c1ccc(F)c(N2C(=O)C(=Cc3ccc(-c4cccc(CO)c4)o3)SC2=S)c1 [Compound A210],< 10
16,O=C(O)c1cccc(N2C(=O)C(=Cc3ccc(-c4ccc(F)cc4)o3)SC2=S)c1 [Compound A211],< 10
17,O=C(O)c1ccc(F)c(N2C(=O)C(=Cc3ccc(-c4ccc(F)cc4)o3)SC2=S)c1 [Compound A212],< 10
18,CCOc1ccc(-c2ccc(C=C3SC(=S)N(c4cccc(C(=O)O)c4)C3=O)o2)cc1 [Compound A217],11 to 40
19,CCOc1ccc(-c2ccc(C=C3SC(=S)N(c4cc(C(=O)O)ccc4F)C3=O)o2)cc1 [Compound A218],< 10
20,O=C(O)c1cccc(N2C(=O)C(=Cc3ccc(-c4ccc(OCc5ccccc5)cc4)o3)SC2=S)c1 [Compound A219],11 to 40
21,O=C(O)c1ccc(F)c(N2C(=O)C(=Cc3ccc(-c4ccc(OCc5ccccc5)cc4)o3)SC2=S)c1 [Compound A220],11 to 40
22,O=C(O)c1cc(N2C(=O)C(=Cc3ccc(-c4ccccc4Cl)o3)SC2=S)cc(C(F)(F)F)c1 [Compound A221],11 to 40
23,O=C(O)c1cc(N2C(=O)C(=Cc3ccc(-c4ccccc4F)o3)SC2=S)cc(C(F)(F)F)c1 [Compound A222],< 10
